Results reported in article PMC9321231.
Read-outs that look alike come from different tables or passages of the source.

Experiments:
[1] = system: human breast adenocarcinoma (MDA-MB-231) cells; assay: Antiproliferative assay (MTT or SRB), MDA-MB-231; type: cell-based; conditions: for IC50: MDA-MB-231, read-out: IC50 ± SD, antiproliferative activity; for Calculated Selectivity Index SI: IC50 Balb/3T3 / IC50 MDA-MB-231
Procedure: (§1) Cell preparation, an in vitro antiproliferative assay, and MTT and SRB cytotoxic tests were performed according to the literature.

[2] = system: lung carcinoma (A549) cells; assay: Antiproliferative assay (MTT or SRB), A549; type: cell-based, human; conditions: for IC50: A-549, read-out: IC50 ± SD, antiproliferative activity; for Calculated Selectivity Index SI: IC50 Balb/3T3 / IC50 A-549
Procedure: as §1

[3] = system: normal mouse fibroblast (BALB/3T3) cells; assay: Antiproliferative assay (MTT or SRB), normal fibroblasts BALB/3T3; type: cell-based; conditions: Balb/3T3 normal mouse fibroblasts; read-out: IC50 ± SD, antiproliferative activity
Procedure: Anticancer drugs are toxic to cancer cells, but also show some toxicity to healthy cells. […] The selectivity indexes for thiazoles 3a–3j against MV4-11 and A-549 cells were in general much higher than for MDA-MB-231 and UMUC-3 cells.
as §1

[4] = system: urinary bladder carcinoma (UMUC-3) cells; assay: Antiproliferative assay (MTT or SRB), UMUC-3; type: cell-based, human; conditions: for IC50: UMUC-3, read-out: IC50 ± SD, antiproliferative activity; for Calculated Selectivity Index SI: IC50 Balb/3T3 / IC50 UMUC-3
Procedure: as §1

[5] = system: human biphenotypic B myelomonocytic leukemia (MV4-11) cells; assay: Antiproliferative assay (MTT or SRB), MV4-11; type: cell-based; conditions: for IC50: MV-4-11, read-out: IC50 ± SD, antiproliferative activity; for Calculated Selectivity Index SI: IC50 Balb/3T3 / IC50 MV-4-11
Procedure: as §1

[6] = molecular target: T1, human neutrophil elastase (HNE) (Homo sapiens, UniProt P08246); assay: Kinetic analysis of the inhibition of human neutrophil elastase (Lineweaver-Burk, Dixon, secondary plots); type: biochemical; conditions: for Inhibition Type: Lineweaver-Burk and Dixon analysis; for Kis (enzyme-substrate-inhibitor dissociation constant): secondary plot of intercept versus inhibitor concentration; for Ki: secondary plot of slope versus inhibitor concentration, read-out: Ki (enzyme-inhibitor dissociation constant)
T1 sequence (P08246 30-267): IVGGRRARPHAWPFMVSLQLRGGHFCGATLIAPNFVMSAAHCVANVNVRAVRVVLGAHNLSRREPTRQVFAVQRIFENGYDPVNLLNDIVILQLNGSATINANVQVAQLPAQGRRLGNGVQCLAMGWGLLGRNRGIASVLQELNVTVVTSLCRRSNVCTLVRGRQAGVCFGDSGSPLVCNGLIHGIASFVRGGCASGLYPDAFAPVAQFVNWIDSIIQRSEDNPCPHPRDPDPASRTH
Procedure: Next, kinetic analysis of the mechanism of inhibition of human neutrophil elastase by thiazoles 3a–3j was determined using double-reciprocal plots of Lineweaver-Burk plots and Dixon analysis.
The first model is one in which the inhibitor binds better to the free enzyme (competitive mechanism), while the second model is one in which the inhibitor binds better to the enzyme-substrate complex (non-competitive mechanism). Next the secondary plots of slope versus concentration of test compounds were plotted to determine the enzyme-inhibitor dissociation constants Ki, and similarly as was used to determine enzyme-substrate-inhibitor dissociation constants Kis, the secondary plots of intercept versus concentration of tested compounds were plotted.
Kinetic studies were conducted in the presence of different concentrations of substrate (5, 25, 50 and 100 µM) and test compounds (in the range of 0–500 nM). The reaction conditions were the same as in the HNE inhibition assay and the reaction was monitored for 10 min at 25 °C with the same Ex an Em wavelengths. By Lineweaver–Burk plots, kinetic values such as the Michaelis–Menten constants and maximum velocity were determined. Next, two inhibition constants for inhibitor binding with free enzyme or enzyme–substrate complex (Ki and Kis) were obtained by plotting the secondary plot of the slopes of the determined straight lines or vertical intercept (1/Vmax) versus inhibitor concentration.

[7] = molecular target: T1, human neutrophil elastase (HNE); assay: Human neutrophil elastase inhibition assay (spectrofluorimetric, MeOSuc-AAPV-AMC substrate)
Procedure: The inhibition of human neutrophil elastase was carried out by the spectrofluorimetric method using N-methoxysuccinyl-Ala-Ala-Pro-Val-7-amido-4-methylcoumarin (MeOSuc-AAPV-AMC) as substrate.

Structure (SMILES)	IC50 [1]	IC50 [2]	IC50 [3]	IC50 [4]	IC50 [5]	IC50 ([1]; Homo sapiens)	Calculated Selectivity Index SI [1]	IC50 ([2]; Homo sapiens, A549)	Calculated Selectivity Index SI [2]	melting point	Inhibition Type [6]	Kis (enzyme-substrate-inhibitor dissociation constant) [6]	Ki [6]	IC50 ([4]; Homo sapiens, UMUC3)	Calculated Selectivity Index SI [4]	IC50 ([5]; Homo sapiens, MV4-11)	Calculated Selectivity Index SI [5]	IC50 [7]
N.N.[Cl][Pt][Cl] [cisplatin, reference compound]	19.4 ± 6.8 µM	4.09 ± 1 µM	8.04 ± 3.16 µM	1.73 ± 0.17 µM	1.33 ± 0.17 µM	–	–	–	–	–	–	–	–	–	–	–	–	–
CCC1(CC)C(=O)N(c2ccc(-c3csc(Nc4c(Cl)cc(Cl)cc4Cl)n3)cc2)C1=O [3j, 3,3-Diethyl-1-(4-(2-(2,4,6-trichlorophenylamino)thiazol-4-yl)phenyl)azetidine-2,4-dione]	–	–	34.5 ± 22.7 µM	–	–	14.3 ± 3.45 µM	2.41	6.21 ± 0.73 µM	5.55	78 to 80 °C	mixed	38.00 nM	0.209 µM	25.3 ± 9.94 µM	1.36	5.11 ± 1.42 µM	6.75	0.249 ± 0.0328 µM
CCC1(CC)C(=O)N(c2ccc(-c3csc(Nc4ccc(Cl)cc4)n3)cc2)C1=O [3a, 1-(4-(2-(4-Chlorophenylamino)thiazol-4-yl)phenyl)-3,3-diethylazetidine-2,4-dione]	–	–	10.9 ± 1.18 µM	–	–	9.86 ± 0.94 µM	1.10	7.01 ± 0.47 µM	1.55	164 to 166 °C	mixed	426.00 nM	0.59 µM	10.7 ± 1.41 µM	1.02	7.15 ± 0.94 µM	1.52	0.227 ± 0.0351 µM
CCC1(CC)C(=O)N(c2ccc(-c3csc(Nc4ccc(F)cc4)n3)cc2)C1=O [3b, 3,3-Diethyl-1-(4-(2-(4-fluorophenylamino)thiazol-4-yl)phenyl)azetidine-2,4-dione]	–	–	11.5 ± 1.47 µM	–	–	9.34 ± 1.12 µM	1.23	7.31 ± 0.46 µM	1.57	155 to 157 °C	mixed	65.50 nM	0.0722 µM	9.07 ± 0.49 µM	1.27	5.92 ± 1.71 µM	1.94	0.176 ± 0.0135 µM
CCC1(CC)C(=O)N(c2ccc(-c3csc(Nc4cc(C)cc(C)c4)n3)cc2)C1=O [3f, 1-(4-(2-(3,5-Dimethylphenylamino)thiazol-4-yl)phenyl)-3,3-diethylazetidine-2,4-dione]	–	–	23.8 ± 4.53 µM	–	–	12.5 ± 1.79 µM	1.90	7.28 ± 1.07 µM	3.27	140 to 143 °C	mixed type I inhibition	426.00 nM	0.144 µM	19.7 ± 5.49 µM	1.21	5.89 ± 1.67 µM	4.04	0.244 ± 0.0194 µM
CCC1(CC)C(=O)N(c2ccc(-c3csc(Nc4ccc5[nH]ncc5c4)n3)cc2)C1=O [3g, 1-(4-(2-(1H-Indazol-5-ylamino)thiazol-4-yl)phenyl)-3,3-diethylazetidine-2,4-dione]	–	–	6.03 ± 0.46 µM	–	–	6.19 ± 0.42 µM	0.97	5.59 ± 0.16 µM	1.08	186 to 188 °C	mixed type I inhibition	171.25 nM	0.137 µM	7.89 ± 0.23 µM	0.76	5.38 ± 0.46 µM	1.12	0.312 ± 0.00576 µM
CCC1(CC)C(=O)N(c2ccc(-c3csc(Nc4cccc5ccccc45)n3)cc2)C1=O [3h, 3,3-Diethyl-1-(4-(2-(naphthalen-1-ylamino)thiazol-4-yl)phenyl)azetidine-2,4-dione]	–	–	22.4 ± 8.62 µM	–	–	14.6 ± 3.17 µM	1.53	9.2 ± 1.36 µM	2.44	69 to 71 °C	mixed type I inhibition	46.50 nM	0.0339 µM	13.3 ± 1.81 µM	1.69	6.64 ± 1.59 µM	3.38	0.0446 ± 0.00604 µM
CCC1(CC)C(=O)N(c2ccc(-c3csc(Nc4ccc(C(F)(F)F)cc4)n3)cc2)C1=O [3i, 3,3-Diethyl-1-(4-(2-(4-(trifluoromethyl)phenylamino)thiazol-4-yl)phenyl)-azetidine-2,4-dione]	–	–	10.1 ± 0.87 µM	–	–	11.7 ± 3.7 µM	0.87	6.42 ± 0.72 µM	1.58	170 to 172 °C	mixed	425.00 nM	0.597 µM	10.7 ± 3.05 µM	0.95	5.47 ± 1.52 µM	1.85	0.168 ± 0.0181 µM
CCC1(CC)C(=O)N(c2ccc(-c3csc(Nc4c(F)c(F)c(F)c(F)c4F)n3)cc2)C1=O [3d, 3,3-Diethyl-1-(4-(2-(perfluorophenylamino)thiazol-4-yl)phenyl)azetidine-2,4-dione]	–	–	46.5 ± 4.99 µM	–	–	72.1 ± 26 µM	0.64	15.3 ± 4.98 µM	3.04	162 to 164 °C	mixed	49.33 nM	0.138 µM	62.7 ± 9.98 µM	0.74	5.4 ± 2.06 µM	8.61	0.11 ± 0.00441 µM
